Source: BindingDB's records for PubMed 33333396 (National University of Ireland Galway, 2021)

What was measured:
[1] = target: T1, Bcl-2 homologous antagonist/killer (Homo sapiens, UniProt Q16611); experiment: Binding affinity to Bak/Mcl-1 (unknown origin) protein protein interaction by fluorescence polarization assay
T1 sequence (Q16611 whole entry): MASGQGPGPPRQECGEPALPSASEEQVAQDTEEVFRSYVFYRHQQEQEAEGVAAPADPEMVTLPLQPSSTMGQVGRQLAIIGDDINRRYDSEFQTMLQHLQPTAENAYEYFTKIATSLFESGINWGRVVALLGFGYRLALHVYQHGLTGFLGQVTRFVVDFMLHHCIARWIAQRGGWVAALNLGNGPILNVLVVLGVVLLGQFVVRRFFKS

[2] = target: T1, Bcl-2 homologous antagonist/killer; experiment: Inhibition of Mcl-1/Bak (unknown origin)

| SMILES | Ki [1] [nM] | IC50 [2] [nM] |
| --- | --- | --- |
| CC(C)Oc1cc(C(=O)Nc2ccc(C(=O)Nc3ccc(C(=O)O)cc3OC(C)C)nc2OC(C)C)ccc1N | 1790 |  |
| Cc1cc2c(C(=O)NC(C)c3ccc(Cl)cc3)c(O)c(O)cc2c(O)c1-c1c(C)cc2c(C(=O)NC(C)c3ccc(Cl)cc3)c(O)c(O)cc2c1O (configuration not stated) [Apogossypol derivative, 8k] |  | 230 |
